The text below walks through data of US10604512B2, “3-(1H-indol-2-yl)-1H-indazoles and therapeutic uses thereof” (Samumed, LLC, priority 2015, dated 2020).

Type in all cases: cell-based
For one assay, the system named is IL-6. Description: Inhibition of IL-6 in LPS-stimulated THP-1 human monocyte cells (HTRF). Conditions: for EC50: IL-6 inhibition, LPS-stimulated THP-1 cells, HTRF. As for the experimental part: Human monocyte cell line (THP-1 cells; Catalog # TIB-202, ATCC, Manassas, Va.) were cultured in Roswell Park Memorial Institute (RPMI) 1640 Medium (Catalog #21870-100, Buffalo, N.Y.) with 1% L-glutamine, 1% HEPES, 1% Sodium Pyruvate, 2% Sodium Bicarbonate supplemented with 100 units/mL penicillin, 50 μg/mL streptomycin, 2-mercaptoethanol (0.05 mM) [basal medium] and 10% fetal bovine serum (Catalog #16140089, Life Technologies, Carlsbad, Calif.) at 37° C. and 5% CO2.
THP-1 cells were cultured in basal media with 1% FBS for 24 hours before the start of the assay. Each compound was dissolved in DMSO as a 10 mM stock and used to prepare compound source plates. Serial dilution (1:3, 10-point dose-response curves starting from 10 μM) and compound transfer was performed using the ECHO 550 (Labcyte, Sunnyvale, Calif.) into 384-well white low volume assay plates (Greiner Bio-One) with appropriate DMSO backfill for a final DMSO concentration of 0.1%. THP-1 cells were plated at 5000 cells/well in the 384-well plates and incubated at 37° C. for 2 h. 500 ng/mL of LPS was added after 2 hours and cells were incubated for another 22 hours at 37° C. Plates were spun in a centrifuge for 1 minute at […] and a mixture of anti-IL6 XL665, and anti-IL6 Cryptate diluted in reconstitution buffer (Cisbio Inc.) was added to each well. Following incubation for 3 hrs at room temperature, Homogeneous Time-Resolved Fluorescence (HTRF) was measured using the Envision (Perkin Elmer) at 665 nm and […]. The ratio of fluorescence at 665 nm to 620 nm was used as a readout for IL6 quantification. All samples were processed in duplicate. Readings were normalized to DMSO treated cells and normalized activities were utilized for EC50 calculations using the dose-response log (inhibitor) vs. response variable slope (four parameters) nonlinear regression feature available in GraphPad Prism 5.0 (or Dotmatics). For EC50 of >10 μM, the percent inhibition at 10 μM is provided.
On the technique in general: In TR-FRET formats the signal depends on donor and acceptor labels being close together.

Another assay deals with SW480 colon cancer cells. Description: Cell viability assay (CellTiter-Blue) in SW480 colon cancer cells. Conditions: Homo sapiens, 96 h, four days, CellTiter-Blue. As for the experimental part: Representative compounds were screened using the following assay procedure to assess the effect on cell viability as described below.
Each compound was dissolved in DMSO as a 10 mM stock and used to prepare compound source plates. Serial dilution (1:3, 8-point dose-response curves from 10 μM to 0.0045 μM) and compound transfer was performed using the ECHO 550 (Labcyte, Sunnyvale, Calif.) into 96-well clear bottom, black-walled plates (Corning-Costar).
Approximately 2×10^3 SW480 colon cancer cells were seeded into each well and allowed to incubate in the presence or absence of compound for four days at 37° C./5% CO2. Eight replicates of DMSO-treated cells served as controls and cells treated with compound were performed in duplicate.
After incubation, 20 μL of CellTiter-Blue (Promega) was added to each well allowed to incubate for approximately 3 hours. This reagent was a buffered solution which contains resazurin, metabolically active cells were able to reduce rezarurin (blue) into resorufin (pink) which was highly fluorescent. This measured fluorescence was used as a readout for cell viability.
After incubation, the plates were read at Ex 560 nm Em 590 nm (Cytation 3, BioTek). Dose-response curves were generated and EC50 concentration values were calculated using non-linear regression curve fit in the GraphPad Prism (San Diego, Calif.) or Dotmatics' Studies Software (Bishops Stortford, UK). For EC50 of >10 μM, the percent inhibition at 10 μM is provided.
For orientation: The colour change of resazurin is a common sign of viable cells or microbes.

The test system of assay [1] is Primary human fibroblasts derived from IPF patients (LL29 cells) treated with TGF-β1. Description: Inhibition of the fibrotic process: αSMA staining in TGF-β1-treated primary human fibroblasts from IPF patients (LL29 cells). Conditions: Fibroblast, 96 h, % αSMA-positive LL29 cells, TGF-β1 20 ng/mL, 4 days. An excerpt: Representative compounds were screened using primary human fibroblasts (derived from IPF patients) treated with TGF-β1 to determine their ability to inhibit the fibrotic process.
Primary human fibroblasts derived from IPF patients (LL29 cells) [^1Xiaoqiu Liu, et. al., “Fibrotic Lung Fibroblasts Show Blunted Inhibition by cAMP Due to Deficient cAMP Response Element-Binding Protein Phosphorylation”, Journal of Pharmacology and Experimental Therapeutics (2005), 315(2), 678-687; ^2Watts, K. L., et. al., “RhoA signaling modulates cyclin D1 expression in human lung fibroblasts; implications for idiopathic pulmonary fibrosis”, Respiratory Research (2006), 7(1), 88] were obtained from American Type Culture Collection (ATCC) and expanded in F12 medium supplemented with 15% Fetal Bovine Serum and Penicillin/Streptomycin.
Each compound was dissolved in DMSO as a 10 mM stock and used to prepare compound source plates. Serial dilution (1:2, 11-point dose-response curves from 10 μM to […]) and compound transfer was performed using the ECHO 550 (Labcyte, Sunnyvale, Calif.) into 384-well clear bottom assay plates (Greiner Bio-One) with appropriate DMSO backfill for a final DMSO concentration of 0.1%. LL29 cells are plated at 1,500 cells/well in 80 μL/well F12 medium supplemented with 1% Fetal Bovine Serum. One hour after addition of the cells, TGF-β1 (Peprotech; 20 ng/mL) was added to the plates to induce fibrosis (ref 1 and 2 above). Wells treated with TGF-β1 and containing DMSO were used as controls. Cells were incubated at 37° C. and 5% CO2 for 4 days. Following incubation for 4 days, SYTOX green nucleic acid stain (Life Technologies [Thermo Fisher Scientific]) was added to the wells at a final concentration of 1 μM and incubated at room temperature for 30 min. Cells were then fixed using 4% formaldehyde (Electron Microscopy Sciences), washed 3 times with PBS followed by blocking and permeabilization using 3% Bovine Serum Albumin (BSA; Sigma) and 0.3% Triton X-100 (Sigma) in PBS. Cells were then stained with antibody specific to α-smooth muscle actin (αSMA; Abcam) (ref 1 and 2 above) in 3% Bovine Serum Albumin (BSA; Sigma) and 0.3% Triton X-100 (Sigma) in PBS, and incubated overnight at 4° C. Cells were then washed 3 times with PBS, followed by incubation with Alexa Flor-647 conjugated secondary antibody (Life Technologies [Thermo Fisher Scientific]) and DAPI at room temperature for 1 hour. Cells were then washed 3 times with PBS and plates were sealed for imaging. αSMA staining was imaged by excitation at 630 nm and emission at 665 nm and quantified using the Compartmental Analysis program on the CellInsight CX5 (Thermo Scientific). Dead or apoptotic cells were excluded from analysis based on positive SYTOX green staining. % of total cells positive for αSMA were counted in each well and normalized to the average of 11 wells treated with TGF-β1 on the same plate using Dotmatics' Studies Software. The normalized averages (fold change over untreated) of 3 replicate wells for each compound concentration were used to create dose-responses curves and EC50 values were calculated using non-linear regression curve fit in the Dotmatics' Studies Software. For EC50 of >10 μM, the percent inhibition at 10 μM is provided.

The test system of assay [2] is Wnt activity (Sp5-Luc reporter, TCF/LEF binding sites) in SW480 colon carcinoma cells. Description: Screening assay for Wnt activity: Sp5-Luc reporter gene assay in stably transduced SW480 colon carcinoma cells. Conditions: Homo sapiens, overnight incubation, 10-point curve from 10 μM. The text has this:
The screening assay for Wnt activity is described as follows. Reporter cell lines can be generated by stably transducing cancer cell lines (e.g., colon cancer) or primary cells (e.g., IEC-6 intestinal cells) with a lentiviral construct that includes a Wnt-responsive promoter driving expression of the firefly luciferase gene.
SW480 colon carcinoma cells were transduced with a lentiviral vector expressing luciferase with a human Sp5 promoter consisting of a sequence of eight TCF/LEF binding sites. SW480 cells stably expressing the Sp5-Luc reporter gene and a hygromycin resistance gene were selected by treatment with 150 μg/mL of hygromycin for 7 days. These stably transduced SW480 cells were expanded in cell culture and used for all further screening activities. Each compound was dissolved in DMSO as a 10 mM stock and used to prepare compound source plates. Serial dilution (1:3, 10-point dose-response curves starting from 10 μM) and compound transfer was performed using the ECHO 550 (Labcyte, Sunnyvale, Calif.) into 384-well white solid bottom assay plates (Greiner Bio-One) with appropriate DMSO backfill for a final DMSO concentration of 0.1%. For Sp5-Luc reporter gene assays, the cells were plated at 4,000 cells/well in 384-well plates with medium containing 1% fetal bovine serum and incubated overnight at 37° C. and 5% CO2. Following incubation, 20 μl of BrightGlo luminescence reagent (Promega) was added to each well of the 384-well assay plates. The plates were placed on an orbital shaker for 2 min and then luminescence was quantified using the Envision (Perkin Elmer) plate reader. Readings were normalized to DMSO only treated cells, and normalized activities were utilized for EC50 calculations using the dose-response log (inhibitor) vs. response variable slope (four parameters) nonlinear regression feature available in GraphPad Prism 5.0 (or Dotmatics). For EC50 of >10 μM, the percent inhibition at 10 μM is provided.
(Reporter assays use an easily measured gene product as a stand-in for the process of interest.)

As usually defined, the EC50 is the concentration that produces a half-maximal response. Consider `CC(C)CC(=O)Nc1cncc(-c2ccc3[nH]nc(-c4cc5c(-c6cc(F)cc(NCCN(C)C)c6)cccc5[nH]4)c3c2)c1` [Compound 450, N-(5-(3-(4-(3-((2-(Dimethylamino)ethyl)amino)-5-fluorophenyl)-1H-indol-2-yl)-1H-indazol-5-yl)pyridin-3-yl)-3-methylbutanamide], for which the EC50 in the assay on IL-6 was 1290 nM; in the assay on SW480 colon cancer cells, 303 nM; in assay [1] it was 191 nM; in assay [2] it was 137 nM.

In the case of `NC1CN(c2cncc(-c3ccc4[nH]nc(-c5cc6c(N7CCCCC7)cccc6[nH]5)c4c3)n2)C1` [Compound 634, 1-(6-(3-(4-(piperidin-1-yl)-1H-indol-2-yl)-1H-indazol-5-yl)pyrazin-2-yl)azetidin-3-amine], the EC50 with IL-6 stood at 74 nM; in the assay with SW480 colon cancer cells it was 1250 nM; in assay [1], 794 nM; in assay [2] it was 468 nM.

For `CC(C)Nc1cncc(-c2ccc3[nH]nc(-c4cc5c(-c6cccnc6)cccc5[nH]4)c3c2)c1` [Compound 96, N-Isopropyl-5-(3-(4-(pyridin-3-yl)-1H-indol-2-yl)-1H-indazol-5-yl)pyridin-3-amine], the EC50 is 163 nM with IL-6, 1140 nM in the assay on SW480 colon cancer cells, 162 nM in assay [1] and 100 nM in assay [2].

Regarding `CCC(=O)Nc1cncc(-c2ccc3[nH]nc(-c4cc5c(-c6cc(F)cc(CNS(C)(=O)=O)c6)cccc5[nH]4)c3c2)c1` [Compound 477, N-(5-(3-(4-(3-Fluoro-5-(methylsulfonamidomethyl)phenyl)-1H-indol-2-yl)-1H-indazol-5-yl)pyridin-3-yl)propionamide], the 50% effective concentration (EC50) in the assay with IL-6 stood at 595 nM; with SW480 colon cancer cells, 817 nM; in assay [1], 224 nM; in assay [2], 135 nM.

Regarding `Fc1ccccc1-c1cccc2[nH]c(-c3n[nH]c4ccc(-c5cncc(CN6CCC(F)(F)C6)c5)cc34)cc12` [Compound 82, 5-(5-((3,3-Difluoropyrrolidin-1-yl)methyl)pyridin-3-yl)-3-(4-(2-fluorophenyl)-1H-indol-2-yl)-1H-indazole], the EC50 in the assay with IL-6 is 4300 nM; with SW480 colon cancer cells, 5240 nM; in assay [1], 2260 nM; in assay [2], 2980 nM.

Regarding `CC(C)CC(=O)Nc1cncc(-c2ccc3[nH]nc(-c4cc5c(-c6ccncc6)cccc5[nH]4)c3c2)c1` [Compound 114, 3-Methyl-N-(5-(3-(4-(pyridin-4-yl)-1H-indol-2-yl)-1H-indazol-5-yl)pyridin-3-yl)butanamide], the EC50 came out at 306 nM with IL-6, 1630 nM in the assay with SW480 colon cancer cells, 331 nM in assay [1] and 450 nM in assay [2].

In the case of `CS(=O)(=O)NCc1cc(F)cc(-c2cccc3[nH]c(-c4n[nH]c5ccc(-c6cncc(NC(=O)C7CC7)c6)cc45)cc23)c1` [Compound 496, N-(5-(3-(4-(3-Fluoro-5-(methylsulfonamidomethyl)phenyl)-1H-indol-2-yl)-1H-indazol-5-yl)pyridin-3-yl)cyclopropanecarboxamide], the EC50 was 991 nM in the assay with IL-6, 1030 nM in the assay with SW480 colon cancer cells, 399 nM in assay [1] and 130 nM in assay [2].

In the case of `CN(C)CCNc1cc(F)cc(-c2cccc3[nH]c(-c4n[nH]c5ccc(-c6cncc(NC(=O)C7CCC7)c6)cc45)cc23)c1` [Compound 469, N-(5-(3-(4-(3-((2-(Dimethylamino)ethyl)amino)-5-fluorophenyl)-1H-indol-2-yl)-1H-indazol-5-yl)pyridin-3-yl)cyclobutanecarboxamide], the concentration for a half-maximal effect (EC50) in the assay with IL-6 is 27 nM; with SW480 colon cancer cells, 287 nM; in assay [1], 189 nM; in assay [2] it was 195 nM.

In the case of `COc1cncc(-c2ccc3[nH]nc(-c4cc5c(-c6ccc(C)s6)cccc5[nH]4)c3c2)c1` [Compound 768, 5-(5-Methoxypyridin-3-yl)-3-(4-(5-methylthiophen-2-yl)-1H-indol-2-yl)-1H-indazole], the 50% effective concentration (EC50) with IL-6 was greater than 10000 nM; in the assay with SW480 colon cancer cells, 1100 nM; in assay [2] it was 250 nM. Besides, the inhibition at 10 µM in the assay with IL-6 (THP-1, printed beside >10 μM EC50, top concentration 10 μM, meaning not given, read-out: percentage in parentheses after EC50 >10) is 49.8%.
